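A five-concentration, 48-hour dose response in 96-well plates underlies each endpoint, interpolated linearly between surrounding concentrations. Abbreviation: GI50, concentration required for 50% inhibition of growth. The concentration for full growth arrest is given as TGI.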
How the values were obtained:
Assay in all cases: growth of human tumour cells (NCI), 48 h
SF-539 CNS = tested on: SF-539 CNS
HOP-62 NSCLC = tested on: HOP-62 NSCLC
EKVX NSCLC = tested on: EKVX NSCLC
SK-MEL-2 melanoma = tested on: SK-MEL-2 melanoma
KM12 colon = tested on: KM12 colon
HCC-2998 colon = tested on: HCC-2998 colon
HCT-15 colon = tested on: HCT-15 colon
NCI-H226 lung = tested on: NCI-H226 lung
NCI-H460 lung = tested on: NCI-H460 lung
SF-268 CNS = tested on: SF-268 CNS
SF-295 CNS = tested on: SF-295 CNS
SNB-19 CNS = tested on: SNB-19 CNS
MCF7 breast = tested on: MCF7 breast
SK-MEL-5 melanoma = tested on: SK-MEL-5 melanoma
UACC-62 melanoma = tested on: UACC-62 melanoma
786-0 renal = tested on: 786-0 renal
RXF 393 renal = tested on: RXF 393 renal
U251 CNS = tested on: U251 CNS
DU-145 prostate = tested on: DU-145 prostate
SNB-75 CNS = tested on: SNB-75 CNS
MOLT-4 leukemia = tested on: MOLT-4 leukemia
SW-620 colon = tested on: SW-620 colon
UACC-257 melanoma = tested on: UACC-257 melanoma
PC-3 prostate = tested on: PC-3 prostate
MDA-MB-435 = tested on: MDA-MB-435
HS 578T breast = tested on: HS 578T breast
HT29 colon = tested on: HT29 colon
MDA-MB-468 breast = tested on: MDA-MB-468 breast
COLO 205 colon = tested on: COLO 205 colon
K-562 leukemia = tested on: K-562 leukemia
HCT-116 colon = tested on: HCT-116 colon
T-47D breast = tested on: T-47D breast
SN12C renal = tested on: SN12C renal
LOX IMVI melanoma = tested on: LOX IMVI melanoma
HOP-92 NSCLC = tested on: HOP-92 NSCLC
SK-OV-3 ovarian = tested on: SK-OV-3 ovarian
NCI-H522 lung = tested on: NCI-H522 lung
MDA-MB-231 breast = tested on: MDA-MB-231 breast
OVCAR-3 ovarian = tested on: OVCAR-3 ovarian
OVCAR-5 ovarian = tested on: OVCAR-5 ovarian
NCI-H23 lung = tested on: NCI-H23 lung
BT-549 breast = tested on: BT-549 breast
HL-60(TB) leukemia = tested on: HL-60(TB) leukemia
IGROV1 ovarian = tested on: IGROV1 ovarian
A498 renal = tested on: A498 renal
A549 NSCLC = tested on: A549 NSCLC
TK-10 renal = tested on: TK-10 renal
MALME-3M melanoma = tested on: MALME-3M melanoma
UO-31 renal = tested on: UO-31 renal
M14 melanoma = tested on: M14 melanoma
CCRF-CEM leukemia = tested on: CCRF-CEM leukemia
OVCAR-4 ovarian = tested on: OVCAR-4 ovarian
RPMI-8226 leukemia = tested on: RPMI-8226 leukemia
CAKI-1 renal = tested on: CAKI-1 renal
ACHN renal = tested on: ACHN renal
OVCAR-8 ovarian = tested on: OVCAR-8 ovarian
SR leukemia = tested on: SR leukemia
SK-MEL-28 melanoma = tested on: SK-MEL-28 melanoma

## COc1cc(CNC(=O)/C=C/c2ccc3c(c2)OCO3)ccc1OCc1cn(-c2cccc(C(F)(F)F)c2)nn1
SF-539 CNS
  GI50: 3.54 µM
  TGI: 12.7 µM
HOP-62 NSCLC
  GI50: 7.29 µM
  TGI: 26 µM
EKVX NSCLC
  GI50: 13.1 µM
  TGI: 29.5 µM
SK-MEL-2 melanoma
  GI50: 10.1 µM
  TGI: 22.8 µM
KM12 colon
  GI50: 15.5 µM
  TGI: 43 µM
HCC-2998 colon
  GI50: 10.1 µM
  TGI: 23.7 µM
HCT-15 colon
  GI50: 5.19 µM
  TGI: 26.6 µM
NCI-H226 lung
  GI50: 3.38 µM
  TGI: 14.7 µM
NCI-H460 lung
  GI50: 3.28 µM
  TGI: 11.6 µM
SF-268 CNS
  GI50: 12 µM
  TGI: 34.8 µM
SF-295 CNS
  GI50: 4.84 µM
  TGI: 17.8 µM
SNB-19 CNS
  GI50: 13.2 µM
  TGI: 27.9 µM
MCF7 breast
  GI50: 4.23 µM
  TGI: 22 µM
SK-MEL-5 melanoma
  GI50: 4.68 µM
  TGI: 16.4 µM
UACC-62 melanoma
  GI50: 11 µM
  TGI: 23.4 µM
786-0 renal
  GI50: 6.2 µM
  TGI: 19.2 µM
RXF 393 renal
  GI50: 2930 nM
  TGI: 9.87 µM
U251 CNS
  GI50: 4.5 µM
  TGI: 17.6 µM
DU-145 prostate
  GI50: 10.7 µM
  TGI: 28.4 µM
SNB-75 CNS
  GI50: 1620 nM
  TGI: 5.37 µM
MOLT-4 leukemia
  GI50: 10.1 µM
  TGI: > 100 µM
SW-620 colon
  GI50: 5.86 µM
  TGI: 22.5 µM
UACC-257 melanoma
  GI50: 10.8 µM
  TGI: 25.4 µM
PC-3 prostate
  GI50: 13.4 µM
  TGI: 29.3 µM
MDA-MB-435
  GI50: 8.25 µM
  TGI: 23.2 µM
HS 578T breast
  GI50: 4.39 µM
  TGI: 24.8 µM
HT29 colon
  GI50: 14.9 µM
  TGI: 36.1 µM
MDA-MB-468 breast
  GI50: 10 µM
  TGI: 22.8 µM
COLO 205 colon
  GI50: 10.4 µM
  TGI: 25 µM
K-562 leukemia
  GI50: 17.5 µM
  TGI: > 100 µM
HCT-116 colon
  GI50: 3.83 µM
  TGI: 14.9 µM
T-47D breast
  GI50: 3.27 µM
  TGI: 26.6 µM
SN12C renal
  GI50: 9.04 µM
  TGI: 27.6 µM
LOX IMVI melanoma
  GI50: 4.75 µM
  TGI: 19 µM
HOP-92 NSCLC
  GI50: 2610 nM
  TGI: 8.28 µM
SK-OV-3 ovarian
  GI50: 16.3 µM
  TGI: 36.5 µM
NCI-H522 lung
  GI50: 9.78 µM
  TGI: 23.7 µM
MDA-MB-231 breast
  GI50: 4.58 µM
  TGI: 17.1 µM
OVCAR-3 ovarian
  GI50: 3.31 µM
  TGI: 11.6 µM
OVCAR-5 ovarian
  GI50: 14.5 µM
  TGI: 31.8 µM
NCI-H23 lung
  GI50: 10.5 µM
  TGI: 23.9 µM
BT-549 breast
  GI50: 4.83 µM
  TGI: 19.3 µM
HL-60(TB) leukemia
  GI50: 23.6 µM
  TGI: > 100 µM
IGROV1 ovarian
  GI50: 15.3 µM
  TGI: 32.7 µM
A498 renal
  GI50: 5.32 µM
  TGI: 19.1 µM
A549 NSCLC
  GI50: 3.71 µM
  TGI: 15.9 µM
TK-10 renal
  GI50: 13.5 µM
  TGI: 32.2 µM
MALME-3M melanoma
  GI50: 2440 nM
  TGI: 9.61 µM
UO-31 renal
  GI50: 2600 nM
  TGI: 10.1 µM
M14 melanoma
  GI50: 10.4 µM
  TGI: 23.3 µM
CCRF-CEM leukemia
  GI50: 32.1 µM
  TGI: > 100 µM
OVCAR-4 ovarian
  GI50: 2900 nM
  TGI: 10.3 µM
RPMI-8226 leukemia
  GI50: 18.5 µM
  TGI: > 100 µM
CAKI-1 renal
  GI50: 5.39 µM
  TGI: 18.5 µM
ACHN renal
  GI50: 5.24 µM
  TGI: 18.5 µM
OVCAR-8 ovarian
  GI50: 3.91 µM
  TGI: 15.4 µM
SR leukemia
  GI50: 21.3 µM
  TGI: > 100 µM
SK-MEL-28 melanoma
  GI50: 8.84 µM
  TGI: 21.7 µM
